No end group written: not given here.
Legend:
[1] = test system: HIV-1IIIB; assay: HIV-1 antiviral assay in CEM-SS cells; settings: HIV-1 assay
[2] = test system: HCMV strain AD169; assay: HCMV plaque formation assay in MRC-5 cells; type: cell-based; settings: for inhibition of HCMV plaque formation as compared to the virus control experiment: 10 micrograms per ml, 7-10 days
[3] = test system: hepatitis B virus (HBV) ayw strain; assay: HBV experimental assay system (HepG2-2.2.15, TaqMan PCR of secreted HBV DNA); type: cell-based; settings: 10 micrograms per ml; six days; HBV DNA in supernatant
[4] = test system: Human A549 cells; assay: Apoptosis prevention assay (C2 ceramide, Annexin-5); type: cell-based; settings: 10 micrograms per ml; 30 min pretreatment, then C2 ceramide
Description: Human A549 cells (carcinomic human alveolar basal epithelial cells) were utilized in the experiments employing the Annexin-5 apoptosis assay. […] A549 cells were pretreated for 30 min with test peptides—10 micrograms per ml—followed by the exposure to C2 ceramide.

[5] = test system: Human A549 cells; assay: Apoptosis induction assay (Annexin-5); type: cell-based; settings: 10 micrograms per ml; 24 hours
[6] = test system: HUVEC; assay: Endothelial tube formation assay; type: cell-based, human; settings: 10 micrograms per ml; 20 hours
Description: Positive control was vehicle only.

[7] = test system: murine spleen cells; assay: Th1/Th2 cytokine profiling assay (Ovalbumin-restimulated spleen cells); type: cell-based, Balb/c mice; settings: 10 micrograms per ml; Ovalbumin restimulation, 72 hours
Description: The Balb/c mice (originated in 1923, it is a popular strain and is used in many different research disciplines. Also classified as an inbred from the production of 20 or more successive brother-sister matings, the Balb/c mouse is albino and small in size) were immunized on Days 1, 15, and 29 with Ovalbumin (Ovalbumin is the main protein found in egg white, commonly used to stimulate an immunological reaction in test animals) in PBS (5 micrograms/injection). On day 50, spleens of the mice were harvested (3 weeks after last boost with Ovalbumin). […] Thereafter, additional Ovalbumin was added to the cells at 10 micrograms/ml for in vitro restimulation of the cells. 72 hours later, cell supernatants were harvested and assayed using the Becton Dickinson Mouse Th1/Th2 Cytokine CBA Kit.

[8] = test system: Primary Human endothelial cells (HUVEC); assay: Endothelial cell migration assay; type: cell-based; settings: 10 micrograms per ml; 22 hours

Row | Compound | antiviral activity of positive control compounds [1] | inhibition of HBV replication as compared to the virus control infection [3] | induction of apoptosis on human lung cells [5] | tube formation of human endothelial cells, inhibited by [6] | production of IL-2, induced by [7] | production of IL-4, induced by [7] | production of IL-5, decreased by [7] | production of TNF-alpha, induced by [7] | inhibition of HCMV plaque formation as compared to the virus control experiment [2] | also measured
1 | Cc1cn([C@H]2C[C@H](N=[N+]=[N-])[C@@H](CO)O2)c(=O)[nH]c1=O [AZT] | expected levels of antiviral activity |  |  |  |  |  |  |  |  | 
2 | Nc1nc(O)c2ncn(COC(CO)CO)c2n1 [Ganciclovir, reference compound] |  |  |  |  |  |  |  |  |  | antiviral activity of positive control compound ([2]; positive control, HCMV assay): expected levels of antiviral activity
3 | CC(C)(C)NC(=O)[C@@H]1CN(Cc2cccnc2)CCN1C[C@@H](O)C[C@@H](Cc1ccccc1)C(=O)N[C@H]1c2ccccc2C[C@H]1O [indinavir] | expected levels of antiviral activity |  |  |  |  |  |  |  |  | 
4 | Ala-Gly-Cys-Lys-Asn-Phe-Phe-Trp-Lys-Thr-Phe-Thr-Ser-Cys-OH (AGCKNFFWKTFTSC-OH; ends and bridges not checked) [Peptide 1] |  | 14.1% | 9.4% | 9% | 102.7% | did not significantly change | did not significantly change | 27.5% | 1.8% | induction of apoptosis on human lung cells (ceramide-induced apoptosis) [4]: 27%; production of IFN-gamma, induced by [7]: 65.1%; migration of human endothelial cells, inhibited by [8]: 3%
5 | Gly-Pro-Glu-OH [Peptide 2] |  | 30.7% | 1.4% | 20% | 24.0% | 52.7% | 37.2% | did not significantly change | 2.9% | production of IFN-gamma, decreased by [7]: 42.5%; migration of human endothelial cells, induced by [8]: 11%
